“Also recorded” adds a separate entry of the source.
Legend:
mouse skin [1] = experiment: Subcutaneous injection of SCTE in mice, skin inflammation and cathelicidin processing; assay type: in vivo
Procedure: Skin from Spink5^−/− mice had altered expression of cathelicidin peptides similar to that seen in rosacea (FIG. 4i). The main peak was GLL-34 (m/z 3,877; FIG. 4i, arrowhead), a mouse cathelicidin peptide similar in activity to human LL-37. Like LL-37, GLL-34 was not detected in wild-type mouse littermates with normal serine protease activity. […] To determine whether an increase in SCTE results in greater inflammation, SCTE was injected subcutaneously in a manner similar to that used for the cathelicidin peptides themselves. The amount of SCTE in human skin is as high as 2-13 ng per mg of dry weight of skin. From the data of the protease assay, the amount of serine protease activity in lesional skin of individuals with rosacea was estimated to be as high as 500 ng of tryptic kallikrein per mg of dry weight of skin. Therefore, […] of SCTE was injected twice a day for 2 d to mimic local concentrations seen in rosacea. […] Therefore, the increase in SCTE observed in rosacea would account for the pathological changes observed this disease.

[2] = test system: Normal human keratinocytes; experiment: Measurement of IL-8 release; assay type: cell-based; conditions: peptides 3.2 μM, 6 h, ELISA; FIG. 4a
Procedure: Measurement of IL-8 release. Normal human keratinocytes (Cascade Biologics) were grown in EpiLife medium (Cascade Biologics) supplemented with 0.06 mM Ca2, 1% EpiLife defined growth supplement, and 1% penicillin/streptomycin (Invitrogen Life Technologies). Cells were grown at 37° C. in a humidified atmosphere of 5% CO2 and 95% air. Human keratinocytes were cultured to confluence and treated with the cathelicidin peptides (3.2 μM) for 6 h. Supernatants were collected and placed in a sterile 96-well plate for ELISA. IL-8 production was determined by ELISA (R&D systems) according to the manufacturer's instructions.

mouse skin [3] = experiment: Mouse skin inflammation model, subcutaneous injection of cathelicidin peptides; assay type: in vivo, Balb/C and C57/B16 mice; conditions: for skin inflammation (erythema, vascular dilatation) / histology of injected skin: 320 μM in 40 μl; for skin inflammation (erythema, vascular dilatation): injected twice a day for 2 d, assessed after 48 hr; for histology of injected skin: biopsy after 48 hr
Procedure: Mouse skin inflammation models. All animal procedures were approved by the Veterans Affairs (VA) San Diego Healthcare System subcommittee on animal studies. Balb/C and C57/B16 mice shaved 24 h prior to treatments and injected subcutaneously on the back with 40 μl of peptide (320 μM) twice a day. Forty-eight h after initial injection (total 4 injections), skin inflammation was assessed by the severity of erythema and edema, then biopsied for histology.
Mouse skin inflammation models. Balb/C or […] mice shaved 24 h prior to treatments were injected subcutaneously on the back with 40 μl of peptide at different concentrations (320, 32, 3.2, 0.32 μM, and PBS as 0 μM) twice a day. Forty-eight h after initial injection (total 4 injection), skin inflammation was assessed by the severity of erythema and edema. Skin was then biopsied for hematoxlin eosin staining to examine the histopathological changes. Frozen sections were also prepared and processed for immunostaining that included rat monoclonal anti-mouse Ly-6G (BD Biosciences, San Jose, Calif.) or rat monoclonal anti-mouse CD31 (BD Biosciences). Goat anti-rat IgG conjugated to FITC (Abcam Inc., Cambridge, Mass.) was used as the secondary antibody. Nuclei were stained with DAPI and sections were mounted in ProLong Anti-Fade reagent (Molecular Probes). Images were obtained using an Olympus BX41 microscope (Scientific Instrument Company, Temecula, Calif.).

mouse cathelicidin = target: T1, mouse cathelicidin (UniProt P51437)
T1 sequence: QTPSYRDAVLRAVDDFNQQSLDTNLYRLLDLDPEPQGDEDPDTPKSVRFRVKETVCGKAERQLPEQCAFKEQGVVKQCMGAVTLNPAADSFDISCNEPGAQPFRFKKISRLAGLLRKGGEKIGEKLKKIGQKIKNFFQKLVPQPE

[4] = test system: protease activity in rosacea skin; experiment: Skin protease activity (BODIPY FL casein substrate) of rosacea skin extracts with protease inhibitors; assay type: biochemical, human; conditions: tape-stripped rosacea facial skin extracts, FITC/BODIPY FL casein, 37° C. 24 h; 20 μg/ml aprotinin, 200 μM AEBSF; FIG. 3k
Procedure: Skin protease activity. To obtain skin surface protease, facial skin was tape-stripped 20 times then immersed in 1 ml 1 M acetic acid and incubated 4° C. overnight, extracts were lyophilized and the pellet dissolved in 40 μl of 1×PBS, pH 7.4. Protease activity was monitored with EnzCheck® Protease Assay Kit green fluorescence (Molecular Probes, Inc., Eugene, Oreg.) according to manufacturer's instructions. Briefly, 10 μl of the aqueous solution collected from the skin surface was mixed with 190 μl of BODIPY FL casein substrate in 10 mM Tris-HCl, pH 7.8, and incubated at 37° C. for 24 h. Protease activity was monitored as increased fluorescence with SpectraMax GEMINI EM (Molecular Devices Corporation, Sunnyvale, Calif.). In some experiments protease inhibitors were added including mixed protease inhibitors (Complete EDTA-free, 1 tablet/50 ml; Roche, Indianapolis, Ind.), 200 μg/ml bestatin, 20 μg/ml E-64, and 20 μg/ml aprotinin (Sigma-Aldrich, St. Louis, Mo.), 200 μM 4-(2-aminoethyl)-benzenesulfonylfluoride (AEBSF), 200 μM human neutrophil elastase inhibitor (methoxysuccinyl-Ala-Ala-Pro-Ala-chloromethyl ketone), 200 μM human leukocyte elastase inhibitor (methoxysuccinyl-Ala-Ala-Pro-Val-chloromethylketone, Calbiochem, San Diego, Calif.).

[5] = target: T2, kallikrein stratum corneum tryptic enzyme (SCTE) (Homo sapiens, UniProt Q9Y337); experiment: Inhibition of SCTE in vitro; assay type: biochemical
T2 sequence (Q9Y337 23-293): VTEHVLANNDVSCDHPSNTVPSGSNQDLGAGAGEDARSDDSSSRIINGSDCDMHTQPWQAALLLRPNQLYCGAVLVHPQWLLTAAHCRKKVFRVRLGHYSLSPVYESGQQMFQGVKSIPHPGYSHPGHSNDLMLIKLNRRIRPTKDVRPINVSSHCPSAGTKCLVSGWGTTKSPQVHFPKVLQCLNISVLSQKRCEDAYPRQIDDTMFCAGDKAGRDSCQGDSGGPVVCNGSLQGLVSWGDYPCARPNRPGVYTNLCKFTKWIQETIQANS
Text: In one aspect of the disclosure, a method of treatment of inflammatory diseases and disorders, rosacea and or acnes comprises inhibiting cathelicidin expression or activity. Examples of compositions and methods for inhibiting the expression of cathelicidins include antisense, ribozyme and gene therapy techniques. For example, rosacea can be inhibited or treated using antisense or ribozyme therapies that reduce the expression of cathelicidin. In one aspect, a vitamin D inhibitor, or vitamin D receptor antagonist can be used to reduce expression of a cathelicidin. Examples of compositions and methods for inhibiting cathelicidin activity include antibodies and small molecule agents. In one aspect, the treatment is at the site of inflammation through topical inhibition of Vitamin D activity, inhibiting of a Vitamin D receptor activity, or an inhibitor of a protease that cleaves full length cathelicidin into its active fragments is provided. For example, a method of the disclosure comprises inhibiting the kallikrein stratum corneum tryptic enzyme (SCTE), an enzyme that cleaves the cathelicidin precursor protein.

SCTE: kallikrein SCTE (stratum corneum tryptic enzyme, KLK5), serine protease that cleaves cathelicidin precursor
cell infiltration after SCTE injection in Camp−/− mice compared with wild type mice (mouse skin [1]; Camp−/− versus wild type, infiltrated cells per HPF, n=4, P<0.05): considerably less cell infiltration; also recorded: significantly less cell infiltration | skin inflammation and cathelicidin processing after SCTE injection (mouse skin [1]; active SCTE injected subcutaneously twice a day for 2 d, versus control (boiled SCTE)): induced erythema and inflammatory cell infiltration accompanied by processing of cathelicidin peptide; also recorded: showed inflammation and processed cathelicidin peptide

LL-37: synthetic cathelicidin peptide LLGDFFRKSKEKIGKEFKRIVQRIKDFLRNLVPRTES (SEQ ID NO:14) (Partial Peptide Sequence from TOF-MS)
secretion of IL-8 from cultured human keratinocytes [2]: induced secretion of IL-8 | skin inflammation (erythema, vascular dilatation) (mouse skin [3]): induced erythema and vascular dilatation | histology of injected skin (mouse skin [3]; twice a day for 2 d): neutrophilic infiltrate, thrombosis and hemorrhage | lowest concentration with dose-dependent inflammatory reaction (mouse skin [3]; 320-0.32 μM, 40 μl, twice a day for 2 d, FIG. 7d, Balb/C and C57/B16): 3.2 µM

stratum corneum tryptic enzyme (SCTE)
cathelicidin processing in mouse skin after subcutaneous SCTE injection (SELDI-TOF-MS) (mouse cathelicidin): SCTE-treated skin showed inflammation and processed cathelicidin peptide (m/z 4,244, sequence FKKISRLAGLLRKGGEKIGEKLKKIGQKIKNFFQKLV (SEQ ID NO:3))

KR-20: synthetic cathelicidin peptide KRIVQRIKDFLRNLVPRTES (SEQ ID NO:15)
secretion of IL-8 from cultured human keratinocytes [2]: did not induce cytokine release | skin inflammation (erythema, vascular dilatation) (mouse skin [3]): did not induce inflammation

NCCc1ccc(S(=O)(=O)F)cc1 [AEBSF, 4-(2-aminoethyl)-benzenesulfonylfluoride]
protease activity in rosacea skin [4]: completely suppressed protease activity; also recorded: effective in eliminating activity | inhibition of SCTE in vitro [5]: can inhibit this enzyme in vitro

aprotinin
protease activity in rosacea skin [4]: completely suppressed protease activity; also recorded: effective in eliminating activity | inhibition of SCTE in vitro [5]: can inhibit this enzyme in vitro

DI-27: synthetic cathelicidin peptide DISCDKDNKRFALLGDFFRKSKEKIGK (SEQ ID NO:7) (Partial Peptide Sequence from TOF-MS)
secretion of IL-8 from cultured human keratinocytes [2]: did not

FA-29: synthetic cathelicidin peptide FALLGDFFRKSKEKIGKEFKRIVQRIKDF (SEQ ID NO:10) (Partial Peptide Sequence from TOF-MS)
secretion of IL-8 from cultured human keratinocytes [2]: induced secretion of IL-8 | skin inflammation (erythema, vascular dilatation) (mouse skin [3]): induced erythema and vascular dilatation | histology of injected skin (mouse skin [3]; twice a day for 2 d): neutrophilic infiltrate, thrombosis and hemorrhage

From patent US20090318534A1, “METHODS AND COMPOSITIONS FOR THE TREATMENT OF SKIN DISEASES AND DISORDERS” (THE REGENTS OF THE UNIVERSITY OF CALIFORNIA, priority 2006, published 2009)
